Measurements published in US7919496B2, “Heterocyclic derivatives for the treatment of diseases mediated by stearoyl-CoA desaturase enzymes” (Xenon Pharmaceuticals Inc., priority 2004, dated 2011).

melting point	SMILES
58 to 61 °C	CCCCCNC(=O)c1cc(N2CCN(C(=O)c3ccccc3C(F)(F)F)CC2)nn1C(=O)OCc1ccccc1 [Example 6, 5-PENTYLCARBAMOYL-3-[4-(2-TRIFLUOROMETHYLBENZOYL)PIPERAZIN-1-YL]PYRAZOLE-1-CARBOXYLIC ACID BENZYL ESTER]
92 to 94 °C	CCCCCNC(=O)c1cnc(N2CCN(C(=O)c3ccccc3C(F)(F)F)CC2)s1 [Example 7, 2-[4-(2-TRIFLUOROMETHYLBENZOYL)PIPERAZIN-1-YL]-THIAZOLE-5-CARBOXYLIC ACID PENTYLAMIDE]
